This passage reports IC50 and EC50 results from patent US8354410B2 (Bristol-Meyers Squibb Company, priority 2010, dated 2013).

One assay deals with T1, HCV NS5B (Hepatitis C virus genotype 1b, UniProt Q9WMX2).
T1 construct: The protein was expressed with an 18 amino acid C-terminal truncation to enhance the solubility; made in house; host or cells: E. coli BL21(DE3)
In words: HCV NS5B RdRp enzyme assay. The format is biochemical. The conditions noted are these: HCV NS5B RdRp genotype 1b; standard or modified assay not specified. As to the method: HCV NS5B RdRp cloning, expression, and purification. The cDNA encoding the NS5B protein of HCV, genotype 1b, was cloned into the pET21a expression vector. The protein was expressed with an 18 amino acid C-terminal truncation to enhance the solubility. The E. coli competent cell line BL21(DE3) was used for expression of the protein. Cultures were grown at 37° C. for ˜4 hours until the cultures reached an optical density of 2.0 at 600 nm. The cultures were cooled to 20° C. and induced with 1 mM IPTG. Fresh ampicillin was added to a final concentration of 50 μg/ml and the cells were grown overnight at 20° C.
Cell pellets (3 L) were lysed for purification to yield 15-24 mgs of purified NS5B. The lysis buffer consisted of 20 mM Tris-HCl, pH 7.4, 500 mM NaCl, 0.5% triton X-100, 1 mM DTT, 1 mM EDTA, 20% glycerol, 0.5 mg/ml lysozyme, 10 mM MgCl2, 15 ug/ml deoxyribonuclease I, and Complete TM protease inhibitor tablets (Roche). After addition of the lysis buffer, frozen cell pellets were resuspended using a tissue homogenizer. To reduce the viscosity of the sample, aliquots of the lysate were sonicated on ice using a microtip attached to a Branson sonicator. The sonicated lysate was centrifuged at 100,000×g for 1 hr at 4° C. and filtered through a 0.2 μm filter unit (Corning).
The protein was purified using three sequential chromatography steps: Heparin sepharose CL-6B, polyU sepharose 4B, and Hitrap SP sepharose (Pharmacia). The chromatography buffers were identical to the lysis buffer but contained no lysozyme, deoxyribonuclease I, MgCl2 or protease inhibitor and the NaCl concentration of the buffer was adjusted according to the requirements for charging the protein onto the column. Each column was eluted with a NaCl gradient which varied in length from 5-50 column volumes depending on the column type. After the final chromatography step, the resulting purity of the enzyme is >90% based on SDS-PAGE analysis. The enzyme was aliquoted and stored at −80° C.
Standard HCV NS5B RdRp enzyme assay. HCV RdRp genotype 1b assays were run in a final volume of 60 μl in 96 well plates (Costar 3912). The assay buffer is composed of 20 mM Hepes, pH 7.5, 2.5 mM KCl, 2.5 mM MgCl2, 1 mM DTT, 1.6 U RNAse inhibitor (Promega N2515), 0.1 mg/ml BSA (Promega R3961), and 2% glycerol. All compounds were serially diluted (3-fold) in DMSO and diluted further in water such that the final concentration of DMSO in the assay was 2%. HCV RdRp genotype 1b enzyme was used at a final concentration of 28 nM. A polyA template was used at 6 nM, and a biotinylated oligo-dT12 primer was used at 180 nM final concentration. Template was obtained commercially (Amersham 27-4110). Biotinylated primer was prepared by Sigma Genosys. 3H-UTP was used at 0.6 μCi (0.29 μM total UTP). Reactions were initiated by the addition of enzyme, incubated at 30° C. for 60 min, and stopped by adding 25 μl of 50 mM EDTA containing SPA beads (4 μg/μl, Amersham RPNQ 0007). Plates were read on a Packard Top Count NXT after >1 hr incubation at room temperature.
Modified HCV NS5B RdRp enzyme assay. A modified enzyme assay was performed essentially as described for the standard enzyme assay except for the following: The biotinylated oligo dT12 primer was precaptured on streptavidin-coated SPA beads by mixing primer and beads in assay buffer and incubating at room temperature for one hour. Unbound primer was removed after centrifugation. The primer-bound beads were resuspended in 20 mM Hepes buffer, pH 7.5 and used in the assay at final concentrations of 20 nM primer and 0.67 μg/μl beads. Order of addition in the assay: enzyme (14 nM) was added to diluted compound followed by the addition of a mixture of template (0.2 nM), 3H-UTP (0.6 μCi, 0.29 μM), and primer-bound beads, to initiate the reaction; concentrations given are final. Reactions were allowed to proceed for 4 hours at 30° C.
IC50 values for compounds were determined using seven different [I]. […]

In a further assay the test system is HCV replicon. In words: HCV replicon assay (FRET / luciferase reporter). It is filed as cell-based, HCV (HUH-7 cells). As to conditions: Hepatitis C virus; HCV replicon cells. An excerpt:
FRET Assay Preparation. To perform the HCV FRET screening assay, 96-well cell culture plates were used. The FRET peptide (Anaspec, Inc.) (Taliani et al., Anal. Biochem. 1996, 240, 60-67) contains a fluorescence donor, EDANS, near one end of the peptide and an acceptor, DABCYL, near the other end. The fluorescence of the peptide is quenched by […] resonance energy transfer (RET) between the donor and the acceptor, but as the NS3 protease cleaves the peptide the products are released from RET quenching and the fluorescence of the donor becomes apparent. The assay reagent was made as follows: 5× cell Luciferase cell culture lysis reagent from Promega (#E153A) diluted to 1× with dH2O, NaCl added to 150 mM final, the FRET peptide diluted to 20 μM final from a 2 mM stock.
To prepare plates, HCV replicon cells, with or without a Renilla luciferase reporter gene, were trypsinized and placed into each well of a 96-well plate with titrated test compounds added in columns 3 through 12; columns 1 and 2 contained a control compound (HCV protease inhibitor), and the bottom row contained cells without compound. The plates were then placed in a CO2 incubator at 37° C.
Assays. Subsequent to addition of the test compounds described above (FRET Assay Preparation), at various times the plate was removed and Alamar blue solution (Trek Diagnostics, #00-100) was added per well as a measure of cellular toxicity. After reading in a Cytoflour 4000 instrument (PE Biosystems), plates were rinsed with PBS and then used for FRET assay by the addition of 30 ul of the FRET peptide assay reagent described above (FRET Assay Preparation) per well. The plate was then placed into the Cytoflour 4000 instrument which had been set to 340 excite/490 emission, automatic mode for 20 cycles and the plate read in a kinetic mode. Typically, the signal to noise using an endpoint analysis after the reads was at least three-fold. Alternatively, after Alamar blue reading, plates were rinsed with PBS, 50 ul of DMEM (high glucose) without phenol red was added and plates were then used for luciferase assay using the Promega Dual-Glo Luciferase Assay System.
Compound analysis was determined by quantification of the relative HCV replicon inhibition and the relative cytotoxicity values. To calculate cytoxicity values, the average Alamar Blue fluorescence signals from the control wells were set as 100% non-toxic. The individual signals in each of the compound test wells were then divided by the average control signal and multiplied by 100% to determine […]. To calculate the HCV replicon inhibition values, an average background value was obtained from the two wells containing the highest amount of HCV protease inhibitor at the end of the assay period. These numbers were similar to those obtained from naïve Huh-7 cells.
The background numbers were then subtracted from the average signal obtained from the control wells and this number was used as 100% activity. The individual signals in each of the compound test wells were then divided by the averaged control values after background subtraction and multiplied by 100% to determine percent activity. EC50 values for a protease inhibitor titration were calculated as the concentration which caused a 50% reduction in FRET or luciferase activity. The two numbers generated for the compound plate, percent cytoxicity and percent activity were used to determine compounds of interest for further analysis.
The HCV replicon luciferase assay was developed to monitor the inhibitory effects of compounds described in the disclosure on HCV viral replication. Utilization of a replicon luciferase reporter assay was first described by Krieger et al (Krieger N, Lohmann V, and Bartenschlager R, J. Virol. 75(10):4614-4624 (2001)). HUH-7 cells, constitutively expressing the HCV replicon, were grown in Dulbecco's Modified Eagle Media (DMEM) (Gibco-BRL) containing 10% Fetal calf serum (FCS) (Sigma) and 1 mg/ml G418 (Gibco-BRL). […]

T1 sequence (Q9WMX2 2420-2992): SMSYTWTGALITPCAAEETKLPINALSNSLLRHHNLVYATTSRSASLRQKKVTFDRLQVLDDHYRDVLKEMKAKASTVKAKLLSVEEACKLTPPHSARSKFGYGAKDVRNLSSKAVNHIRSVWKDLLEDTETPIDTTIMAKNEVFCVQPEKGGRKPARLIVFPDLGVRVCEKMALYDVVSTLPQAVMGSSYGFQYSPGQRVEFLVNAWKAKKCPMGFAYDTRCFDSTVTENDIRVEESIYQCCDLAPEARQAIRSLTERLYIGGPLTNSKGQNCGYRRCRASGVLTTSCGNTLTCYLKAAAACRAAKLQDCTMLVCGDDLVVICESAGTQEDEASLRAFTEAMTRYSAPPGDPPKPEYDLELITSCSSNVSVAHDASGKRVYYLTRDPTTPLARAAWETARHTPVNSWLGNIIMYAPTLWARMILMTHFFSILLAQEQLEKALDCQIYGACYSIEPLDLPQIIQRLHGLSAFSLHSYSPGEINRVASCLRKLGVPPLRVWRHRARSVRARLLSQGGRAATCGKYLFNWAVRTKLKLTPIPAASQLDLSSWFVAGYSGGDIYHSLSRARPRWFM

For `CNC(=O)c1c(-c2ccc(F)cc2)oc2ccc(-c3cc(C(=O)NC4(c5ccc6ncccc6n5)CC4)cc(F)c3C)c(F)c12` [5-(5-(1-(1,5-naphthyridin-2-yl)cyclopropylcarbamoyl)-3-fluoro-2-methylphenyl)-4-fluoro-2-(4-fluorophenyl)-N-methylbenzofuran-3-carboxamide], the concentration for half-maximal inhibition (IC50) (commonly the concentration that inhibits the measured activity by half) against HCV NS5B was found to be 70 nM. Further, the half-maximal effective concentration (EC50) (as a rule, the concentration giving half of the maximal effect) with HCV replicon amounted to 100 nM. Consider `CNC(=O)c1c(-c2ccc(F)cc2)oc2ccc(-c3cc(C(=O)N[C@H](C)c4nc5cnccc5o4)c(OC)cc3C)c(F)c12`, for which it took 40 nM to reach half-maximal inhibition at HCV NS5B (IC50). This molecule yielded a 50% effective concentration (EC50) with HCV replicon of 10 nM. `CNC(=O)c1c(-c2ccc(F)cc2)oc2ccc(-c3cc(C(=O)NC4(c5ccc6ncccc6n5)CC4)ccc3C)cc12`: on HCV NS5B, half-maximal inhibition (IC50) required 10 nM. Moreover, in the assay on HCV replicon, the EC50 came to 30 nM. The molecule `CNC(=O)c1c(-c2ccc(F)cc2)oc2ccc(-c3cc(C(=O)NC4(c5ccc6cccnc6n5)CC4)cc(F)c3C)c(F)c12` came in with a concentration for half-maximal inhibition (IC50) on HCV NS5B of 10 nM. In the assay with HCV replicon, this molecule displayed a 50% effective concentration (EC50) of 70 nM.

The molecule `CNC(=O)c1c(-c2ccc(F)cc2)oc2ccc(-c3cc(C(=O)NC4(c5nc6cnccc6o5)CC4)c(OC)cc3C)cc12` gave an IC50 against HCV NS5B of 10 nM. For the same molecule, the EC50 in the assay on HCV replicon turned out to be 1 nM. In the case of `CNC(=O)c1c(-c2ccc(F)cc2)oc2ccc(-c3cc(C(=O)NC4(c5ccc6[nH]ccc6n5)CC4)ccc3C)c(F)c12`, the IC50 against HCV NS5B amounted to 20 nM. Also, in the assay on HCV replicon, the concentration for a half-maximal effect (EC50) was determined as 7 nM.

`CNC(=O)c1c(-c2ccc(F)cc2)oc2ccc(-c3cc(C(=O)NC4(c5ccc6ccncc6n5)CC4)c(OC)cc3OCC(N)=O)cc12` registered an IC50 on HCV NS5B of 5 nM. This molecule showed an EC50 in the assay with HCV replicon of 4 nM. For the molecule `CNC(=O)c1c(-c2ccc(F)cc2)oc2ccc(-c3cc(C(=O)NC4(c5nccc6[nH]ccc56)CC4)ccc3C)c(F)c12`, in the assay with HCV replicon, a half-maximal effect (EC50) was put at 60 nM. On to `CNC(=O)c1c(-c2ccc(F)cc2)oc2ccc(-c3cc(C(=O)NC4(c5ccc6cnccc6n5)CC4)cc(F)c3C)c(F)c12`, for which the IC50 at HCV NS5B turned out to be 7 nM. Moreover, in the assay with HCV replicon, the EC50 is 6 nM. In turn, `CNC(=O)c1c(-c2ccc(F)cc2)oc2ccc(-c3cc(C(=O)NC4(c5ccc6ccncc6n5)CC4)ccc3C)c(F)c12` had a half-inhibitory concentration (IC50) against HCV NS5B of 20 nM. In addition, the midpoint of the response in the assay with HCV replicon, the EC50, lay at 6 nM. `CNC(=O)c1c(-c2ccc(F)cc2)oc2ccc(-c3cc(C(=O)NC4(c5ccc6ccncc6n5)CC4)cc(F)c3C)c(F)c12` gave an IC50 against HCV NS5B of 10 nM. Also, in the assay with HCV replicon, the concentration giving a half-maximal response (EC50) was 9 nM.

At HCV NS5B, `CNC(=O)c1c(-c2ccc(F)cc2)oc2ccc(-c3cc(C(=O)NC4(c5nc6cnccc6o5)CC4)c(OC)cc3C)c(F)c12` had a 50% inhibitory concentration (IC50) of 40 nM. Also, in the assay on HCV replicon, the 50% effective concentration (EC50) amounted to 1 nM.

In the case of `CNC(=O)c1c(-c2ccc(F)cc2)oc2ccc(-c3cc(C(=O)NC4(c5nc6cnccc6o5)CC4)ccc3C)cc12`, inhibition on HCV NS5B was half-maximal at 20 nM (IC50). In the assay on HCV replicon, this molecule displayed a concentration for a half-maximal effect (EC50) of 1 nM. On HCV NS5B, `CNC(=O)c1c(-c2ccc(F)cc2)oc2ccc(-c3cc(C(=O)N[C@H](C)c4nc5cnccc5o4)cc(F)c3C)c(F)c12` [5-(5-(1-(1H-imidazo[4,5-o]pyridin-2-yl)cyclopropylcarbamoyl)-2-methylphenyl)-4-fluoro-2-(4-fluorophenyl)-N-methylbenzofuran-3-carboxamide] registered an IC50 of 30 nM. Besides, the EC50 in the assay on HCV replicon was found to be 40 nM. Regarding `CNC(=O)c1c(-c2ccc(F)cc2)oc2ccc(-c3cc(C(=O)NC4(c5ccc6ncccc6n5)CC4)ccc3C)c(F)c12`, the half-inhibitory concentration (IC50) against HCV NS5B stood at 10 nM. In the assay on HCV replicon, this molecule had an EC50 of 30 nM. Taken in the same sequence, the figures for `CNC(=O)c1c(-c2ccc(F)cc2)oc2ccc(-c3cc(C(=O)NC4(c5ccc6cnccc6n5)CC4)c(OC)cc3C)c(F)c12` [5-(5-(1-(1,6-naphthyridin-2-yl)cyclopropylcarbamoyl)-4-methoxy-2-methylphenyl)-4-fluoro-2-(4-fluorophenyl)-N-methylbenzofuran-3-carboxamide] were 100 nM and 9 nM. For the molecule `CNC(=O)c1c(-c2ccc(F)cc2)oc2ccc(-c3cc(C(=O)NC4(c5ccc6cccnc6n5)CC4)ccc3C)cc12`, on HCV NS5B, it took 3 nM to reach half-maximal inhibition (IC50). The molecule also displayed an EC50 in the assay on HCV replicon of 40 nM. As to `CNC(=O)c1c(-c2ccc(F)cc2)oc2ccc(-c3cc(C(=O)NC4(c5ccc6ccncc6n5)CC4)ccc3C)cc12`, the IC50 against HCV NS5B is 5 nM. The molecule also registered an EC50 in the assay on HCV replicon of 3 nM. Consider `CNC(=O)c1c(-c2ccc(F)cc2)oc2ccc(-c3cc(C(=O)NC4(c5ncc6cnccc6n5)CC4)ccc3C)c(F)c12`, for which half-maximal inhibition on HCV NS5B (IC50) required 6 nM. For the same molecule, the concentration giving a half-maximal response (EC50) in the assay with HCV replicon came to 20 nM.

With `CNC(=O)c1c(-c2ccc(F)cc2)oc2ccc(-c3cc(C(=O)NC4(c5ccc6cnccc6n5)CC4)ccc3C)cc12`, the midpoint of inhibition at HCV NS5B, the IC50, lay at 8 nM. The same molecule had an EC50 in the assay with HCV replicon of 2 nM. On HCV NS5B, `CNC(=O)c1c(-c2ccc(F)cc2)oc2ccc(-c3cc(C(=O)NC4(c5nc6cnccc6o5)CC4)ccc3C)c(F)c12` came in with an IC50 of 20 nM. In addition, the midpoint of the response with HCV replicon, the EC50, lay at 4 nM.
